Assay results published in patent US20100298141A1, “SUBSTITUTED PYRIDINE N-OXIDE HERBICIDES” (E. I. DU PONT DE NEMOURS AND COMPANY, priority 2007, published 2010).

Key:
Test in all cases: Test F preemergence test
kochia = type: in vivo, Kochia scoparia; settings: scale 0 to 100
From the text: (§1) Seeds of plant species selected from bermudagrass (Cynodon dactylon), Surinam grass (Brachiaria decumbens), large crabgrass (Digitaria sanguinalis), green foxtail (Setaria viridis), goosegrass (Eleusine indica), johnsongrass (Sorghum halepense), kochia (Kochia scoparia), pitted morningglory (Ipomoea lacunosa), purple nutsedge (Cyperus rotundus), common ragweed (Ambrosia elation), mustard (Brassica nigra), guineagrass (Panicum maximum), […] (Paspalum dilatatum), barnyardgrass (Echinochloa crus-galli), southern sandbur (Cenchrus echinatus), common sowthistle (Sonchus oleraceous), prickly […] spinosa), Italian ryegrass (Lolium multiflorum), common purslane (Portulaca oleracea), broadleaf signalgrass (Brachiaria platyphylla), common groundsel (Senecio vulgaris), common chickweed (Stellaria media), Virginia dayflower (Commelina virginica), annual bluegrass (Poa annua), naked crabgrass (Digitaria nuda), […] cochinchinensis), quackgrass (Elytrigia repens), Canada horseweed (Conyza canadensis), field bindweed (Convolvulus arvensis), […] (Bidens bipinnata), common mallow (Malva sylvestris), Russian thistle (Salsola kali), and sugarcane (Saccharum officinarum) were planted and treated preemergence with test chemicals formulated in a non-phytotoxic solvent mixture which included a surfactant. At a different time, sugarcane was treated with postemergence applications of some of the test chemicals formulated in the same manner. Plants were approximately 3- to 4-leaf stage for the postemergence treatments. Treated plants and controls were maintained in a greenhouse for 14 to 21 days, after which time all species were compared to controls and visually evaluated. […] A dash (-) response means no test result.

southern sandbur = type: in vivo, Cenchrus echinatus; settings: scale 0 to 100
From the text: as §1

purple nutsedge = type: in vivo, Cyperus rotundus; settings: scale 0 to 100
From the text: as §1

naked crabgrass = type: in vivo, Digitaria nuda; settings: scale 0 to 100
From the text: as §1

Surinam grass = type: in vivo, Brachiaria decumbens; settings: scale 0 to 100
From the text: as §1

johnsongrass = type: in vivo, Sorghum halepense; settings: Preemergence, scale 0 to 100
From the text: as §1

guineagrass = type: in vivo, Panicum maximum; settings: scale 0 to 100
From the text: as §1

prickly sida = type: in vivo, Sida spinosa; settings: scale 0 to 100
From the text: as §1

Italian ryegrass = type: in vivo, Lolium multiflorum; settings: scale 0 to 100
From the text: as §1

goosegrass = type: in vivo, Eleusine indica; settings: scale 0 to 100
From the text: as §1

large crabgrass = type: in vivo, Digitaria sanguinalis; settings: scale 0 to 100
From the text: as §1

quackgrass = type: in vivo, Elytrigia repens; settings: scale 0 to 100
From the text: as §1

pitted morningglory = type: in vivo, Ipomoea lacunosa; settings: scale 0 to 100
From the text: as §1

common groundsel = type: in vivo, Senecio vulgaris; settings: scale 0 to 100
From the text: as §1

common purslane = type: in vivo, Portulaca oleracea; settings: scale 0 to 100
From the text: as §1

bermudagrass = type: in vivo, Cynodon dactylon; settings: scale 0 to 100
From the text: as §1

## Cc1cc[n+]([O-])c(S(=O)(=O)Cc2c(C(F)(F)F)nn(C)c2OC(F)F)c1 [Compound 2]
kochia; 8 g ai/ha, preemergence
  Plant response rating, Kochia: 0
kochia; 62 g ai/ha, Preemergence
  Kochia plant response rating: 75
kochia; Preemergence, 16 g ai/ha
  Plant response rating, Kochia: 0
kochia; Preemergence, 31 g ai/ha
  Plant response rating, Kochia: 0
Southern sandbur; 8 g ai/ha, preemergence
  Plant response rating, Sandbur: 0
Southern sandbur; 16 g ai/ha, preemergence
  Plant response rating, Sandbur: 0
Southern sandbur; 62 g ai/ha, Preemergence
  Sandbur plant response rating: 100
Southern sandbur; Preemergence, 31 g ai/ha
  Plant response rating, Sandbur: 30
Purple nutsedge; 8 g ai/ha, preemergence
  Plant response rating, Purple Nutsedge: 0
Purple nutsedge; 62 g ai/ha, Preemergence
  Purple Nutsedge plant response rating: 100
Purple nutsedge; Preemergence, 16 g ai/ha
  Plant response rating, Purple Nutsedge: 15
Purple nutsedge; Preemergence, 31 g ai/ha
  Plant response rating, Purple Nutsedge: 70
Naked crabgrass; 8 g ai/ha, preemergence
  Plant response rating, Crabgrass, Naked: 0
Naked crabgrass; 62 g ai/ha, Preemergence
  Crabgrass, Naked plant response rating: 80
Naked crabgrass; Preemergence, 16 g ai/ha
  Plant response rating, Crabgrass, Naked: 35
Naked crabgrass; Preemergence, 31 g ai/ha
  Plant response rating, Crabgrass, Naked: 65
Surinam grass; 8 g ai/ha, preemergence
  Plant response rating, Surinam Grass: 0
Surinam grass; 16 g ai/ha, preemergence
  Plant response rating, Surinam Grass: 0
Surinam grass; 62 g ai/ha, Preemergence
  Surinam Grass plant response rating: 100
Surinam grass; Preemergence, 31 g ai/ha
  Plant response rating, Surinam Grass: 60
johnsongrass; 62 g ai/ha
  Johnsongrass plant response rating: 85
johnsongrass; 31 g ai/ha
  Plant response rating, Johnsongrass: 70
guineagrass; 8 g ai/ha, preemergence
  Plant response rating, Guineagrass: 0
guineagrass; 62 g ai/ha, Preemergence
  Guineagrass plant response rating: 100
guineagrass; Preemergence, 16 g ai/ha
  Plant response rating, Guineagrass: 65
guineagrass; Preemergence, 31 g ai/ha
  Plant response rating, Guineagrass: 90
Prickly sida; 8 g ai/ha, preemergence
  Plant response rating, Prickly Sida: 0
Prickly sida; 62 g ai/ha, Preemergence
  Prickly Sida plant response rating: 80
Prickly sida; Preemergence, 16 g ai/ha
  Plant response rating, Prickly Sida: 0
Prickly sida; Preemergence, 31 g ai/ha
  Plant response rating, Prickly Sida: 40
Italian ryegrass; 8 g ai/ha, preemergence
  Plant response rating, Ryegrass, Italian: 0
Italian ryegrass; 62 g ai/ha, Preemergence
  Ryegrass, Italian plant response rating: 35
Italian ryegrass; Preemergence, 16 g ai/ha
  Plant response rating, Ryegrass, Italian: 0
Italian ryegrass; Preemergence, 31 g ai/ha
  Plant response rating, Ryegrass, Italian: 20
goosegrass; 8 g ai/ha, preemergence
  Plant response rating, Goosegrass: 35
goosegrass; 62 g ai/ha, Preemergence
  Goosegrass plant response rating: 98
goosegrass; Preemergence, 16 g ai/ha
  Plant response rating, Goosegrass: 70
goosegrass; Preemergence, 31 g ai/ha
  Plant response rating, Goosegrass: 90
Large crabgrass; 8 g ai/ha, preemergence
  Plant response rating, Crabgrass, Large: 0
Large crabgrass; 62 g ai/ha, Preemergence
  Crabgrass, Large plant response rating: 90
Large crabgrass; Preemergence, 16 g ai/ha
  Plant response rating, Crabgrass, Large: 0
Large crabgrass; Preemergence, 31 g ai/ha
  Plant response rating, Crabgrass, Large: 50
quackgrass; 8 g ai/ha, preemergence
  Plant response rating, Quackgrass: 0
quackgrass; 62 g ai/ha, Preemergence
  Quackgrass plant response rating: 60
quackgrass; Preemergence, 16 g ai/ha
  Plant response rating, Quackgrass: 0
quackgrass; Preemergence, 31 g ai/ha
  Plant response rating, Quackgrass: 20
Pitted morningglory; 8 g ai/ha, preemergence
  Plant response rating, Morningglory: 0
Pitted morningglory; 62 g ai/ha, Preemergence
  Morningglory plant response rating: 60
Pitted morningglory; Preemergence, 16 g ai/ha
  Plant response rating, Morningglory: 0
Pitted morningglory; Preemergence, 31 g ai/ha
  Plant response rating, Morningglory: 15
Common groundsel; 8 g ai/ha, preemergence
  Plant response rating, Groundsel: 0
Common groundsel; 62 g ai/ha, Preemergence
  Groundsel plant response rating: 50
Common groundsel; Preemergence, 16 g ai/ha
  Plant response rating, Groundsel: 0
Common groundsel; Preemergence, 31 g ai/ha
  Plant response rating, Groundsel: 50
Common purslane; 8 g ai/ha, preemergence
  Plant response rating, Purslane: 0
Common purslane; 62 g ai/ha, Preemergence
  Purslane plant response rating: 50
Common purslane; Preemergence, 16 g ai/ha
  Plant response rating, Purslane: 0
Common purslane; Preemergence, 31 g ai/ha
  Plant response rating, Purslane: 40
bermudagrass; 8 g ai/ha, preemergence
  Plant response rating, Bermudagrass: 0
bermudagrass; 62 g ai/ha, Preemergence
  Bermudagrass plant response rating: 90
bermudagrass; Preemergence, 16 g ai/ha
  Plant response rating, Bermudagrass: 25
bermudagrass; Preemergence, 31 g ai/ha
  Plant response rating, Bermudagrass: 90
